Patent US20260001871A1, “TRIAZOLE DERIVATIVES AS MODULATORS OF MAS-RELATED G-PROTEIN RECEPTOR D” (ESCIENT PHARMACEUTICALS, INC., priority 2022, published 2026)
pIC50: −log10 of the molar value.

Target: human MRGPRD (Homo sapiens, UniProt Q8TDS7)
Experiment: MRGPRD antagonist activity, IP-One HTRF assay in CHO cells stably expressing human MRGPRD (versus 100 μM β-Alanine agonist)
Assay type: cell-based
Summary of the method: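 CHO cells stably expressing human MRGPRD, plated overnight at 37 °C, were treated with antagonist plus agonist in Tris-HCl/NaCl/LiCl buffer pH 8, incubated 1 h at 37 °C then 1 h at room temperature. IP-1 accumulation read by HTRF; IC50 and percent antagonism of maximum efficacy averaged, SEM reported.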

Sequence of human MRGPRD (Q8TDS7 whole entry): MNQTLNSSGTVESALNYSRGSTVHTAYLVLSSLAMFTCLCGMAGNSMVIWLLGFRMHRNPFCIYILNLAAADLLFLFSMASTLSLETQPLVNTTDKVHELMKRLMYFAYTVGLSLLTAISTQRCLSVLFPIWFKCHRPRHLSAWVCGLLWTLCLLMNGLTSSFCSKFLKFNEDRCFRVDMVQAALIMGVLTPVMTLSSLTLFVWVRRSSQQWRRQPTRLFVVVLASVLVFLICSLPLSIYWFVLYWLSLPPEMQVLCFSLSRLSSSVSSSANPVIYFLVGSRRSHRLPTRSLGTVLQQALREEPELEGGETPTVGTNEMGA

pIC50 | Structure (SMILES)
5.52 to 6.00 | CC(NC(=O)c1nnn(-c2ccc(-c3ccccc3)cc2)c1C1CC1)c1ccn(C)n1 (stereo not shown) [Compound 14-33]
5.52 to 6.00 | Cn1cc(CNC(=O)c2nnn(-c3ccc(-c4ccccc4)cc3)c2C2CC2)cn1 [Compound 14-34]
5.52 to 6.00 | O=C(NCc1cn[nH]c1)c1nnn(-c2ccc(-c3ccccc3)cc2)c1C1CC1 [Compound 14-36]
5.52 to 6.00 | CC[C@H](NC(=O)c1nnn(-c2ccc(-c3ccccc3)cc2)c1C1CC1)c1ccccc1 [Compound 14-37]
5.52 to 6.00 | Cn1ncc2c1CCCC2NC(=O)c1nnn(-c2ccc(-c3ccccc3)cc2)c1C1CC1 (stereo not shown) [Compound 14-38]
5.52 to 6.00 | Cc1c2c(NC(=O)c3nnn(-c4ccc(-c5ccccc5)cc4)c3C3CC3)nccc2nn1C [Compound 14-39]
5.52 to 6.00 | CO[C@H]1CC[C@H](NC(=O)c2nnn(-c3ccc(-c4ccccc4)cc3)c2C2CC2)CC1 [Compound 14-40]
5.52 to 6.00 | O=C(NCc1c[nH]cn1)c1nnn(-c2ccc(-c3ccccc3)cc2)c1C1CC1 [Compound 14-41]
5.52 to 6.00 | O=C(NCCc1c[nH]cn1)c1nnn(-c2ccc(-c3ccccc3)cc2)c1C1CC1 [Compound 14-42]
5.52 to 6.00 | CC(NC(=O)c1nnn(-c2ccc(-c3ccccc3)cc2)c1C1CC1)c1cnn(C(C)(C)C)c1 (stereo not shown) [Compound 14-43]
5.52 to 6.00 | CC1(C)COCCC1NC(=O)c1nnn(-c2ccc(-c3ccccc3)cc2)c1C1CC1 (stereo not shown) [Compound 14-44]
5.52 to 6.00 | CCn1cc(NC(=O)c2nnn(-c3ccc(-c4ccccc4)cc3)c2C2CC2)cn1 [Compound 14-45]
5.52 to 6.00 | O=C(NC1(c2cccnc2)CC1)c1nnn(-c2ccc(-c3ccccc3)cc2)c1C1CC1 [Compound 14-46]
5.52 to 6.00 | CC(NC(=O)c1nnn(-c2ccc(-c3ccccc3)cc2)c1C1CC1)c1ccc(S(C)(=O)=O)cc1 (stereo not shown) [Compound 14-47]
5.52 to 6.00 | O=C(Nc1ccnc(N2CCOCC2)c1)c1nnn(-c2ccc(-c3ccccc3)cc2)c1C1CC1 [Compound 14-48]
5.52 to 6.00 | CC(NC(=O)c1nnn(-c2ccc(-c3ccccc3)cc2)c1C1CC1)c1cccnc1 (stereo not shown) [Compound 14-49]
5.52 to 6.00 | COc1cc(NC(=O)c2nnn(-c3ccc(-c4ccccc4)cc3)c2C2CC2)ccn1 [Compound 14-50]
5.52 to 6.00 | Cc1nn(C)c2ccnc(NC(=O)c3nnn(-c4ccc(-c5ccccc5)cc4)c3C3CC3)c12 [Compound 14-51]
5.52 to 6.00 | O=C(Nc1ccnc(C(F)(F)F)c1)c1nnn(-c2ccc(-c3ccccc3)cc2)c1C1CC1 [Compound 14-52]
5.52 to 6.00 | O=C(Nc1ncnc2[nH]ncc12)c1nnn(-c2ccc(-c3ccccc3)cc2)c1C1CC1 [Compound 14-53]
5.52 to 6.00 | O=C(Nc1c(F)cccc1F)c1nnn(-c2ccc(-c3ccccc3)cc2)c1C1CC1 [Compound 14-54]
5.52 to 6.00 | Cc1cc(CNC(=O)c2nnn(-c3ccc(-c4ccccc4)cc3)c2C2CC2)nn1C [Compound 14-55]
5.52 to 6.00 | O=C(NC1CC(F)(F)C1)c1nnn(-c2ccc(-c3ccccc3)cc2)c1C1CC1 [Compound 14-56]
5.52 to 6.00 | O=C(N[C@H]1CCc2ccccc21)c1nnn(-c2ccc(-c3ccccc3)cc2)c1C1CC1 [Compound 14-57]
5.52 to 6.00 | Cc1cc(NC(=O)c2nnn(-c3ccc(-c4ccccc4)cc3)c2C2CC2)ccc1F [Compound 14-58]

pIC50 | Structure (SMILES)
5.52 to 6.00 | COc1ccc2[nH]cc(CC(C)NC(=O)c3nnn(-c4ccc(-c5ccccc5)cc4)c3C3CC3)c2c1 (stereo not shown) [Compound 14-59]
5.52 to 6.00 | O=C(Nc1cncc2[nH]ncc12)c1nnn(-c2ccc(-c3ccccc3)cc2)c1C1CC1 [Compound 14-60]
5.52 to 6.00 | Cc1n[nH]c2cccc(NC(=O)c3nnn(-c4ccc(-c5ccccc5)cc4)c3C3CC3)c12 [Compound 14-61]
5.52 to 6.00 | COc1cccc(C)c1NC(=O)c1nnn(-c2ccc(-c3ccccc3)cc2)c1C1CC1 [Compound 14-62]
5.52 to 6.00 | Cn1ncc2c(NC(=O)c3nnn(-c4ccc(-c5ccccc5)cc4)c3C3CC3)cccc21 [Compound 14-63]
5.52 to 6.00 | Cc1c(C(C)NC(=O)c2nnn(-c3ccc(-c4ccccc4)cc3)c2C2CC2)cnn1C (stereo not shown) [Compound 14-64]
5.52 to 6.00 | O=C(Nc1cccc2nccn12)c1nnn(-c2ccc(-c3ccccc3)cc2)c1C1CC1 [Compound 14-65]
5.52 to 6.00 | Cc1cn2c(NC(=O)c3nnn(-c4ccc(-c5ccccc5)cc4)c3C3CC3)cccc2n1 [Compound 14-66]
5.52 to 6.00 | O=C(NCCc1cccs1)c1nnn(-c2ccc(-c3ccccc3)cc2)c1C1CC1 [Compound 14-67]
5.52 to 6.00 | O=C(N[C@H]1CCC[C@@H](O)C1)c1nnn(-c2ccc(-c3ccccc3)cc2)c1C1CC1 [Compound 14-68]
5.52 to 6.00 | Cn1cc(C2(NC(=O)c3nnn(-c4ccc(-c5ccccc5)cc4)c3C3CC3)CC2)cn1 [Compound 14-69]
5.52 to 6.00 | Cn1ncc2c1CCC2NC(=O)c1nnn(-c2ccc(-c3ccccc3)cc2)c1C1CC1 (stereo not shown) [Compound 14-70]
< 5.52 | Cc1c(NC(=O)c2nnn(-c3ccc(-c4ccccc4)cc3)c2C2CC2)nn(C)c1C [Compound 14-71]
< 5.52 | Cn1cc(NC(=O)c2nnn(-c3ccc(-c4ccccc4)cc3)c2C2CC2)cn1 [Compound 14-72]
< 5.52 | CC(C)n1cc(NC(=O)c2nnn(-c3ccc(-c4ccccc4)cc3)c2C2CC2)cn1 [Compound 14-73]
< 5.52 | CC1(NC(=O)c2nnn(-c3ccc(-c4ccccc4)cc3)c2C2CC2)CCOCC1 [Compound 14-74]
< 5.52 | CC(NC(=O)c1nnn(-c2ccc(-c3ccccc3)cc2)c1C1CC1)c1cnn(C)c1 (stereo not shown) [Compound 14-75]
< 5.52 | CN(Cc1ccc(N2CCOCC2)cc1)C(=O)c1nnn(-c2ccc(-c3ccccc3)cc2)c1C1CC1 [Compound 14-76]
< 5.52 | CS(=O)(=O)Nc1cccc(NC(=O)c2nnn(-c3ccc(-c4ccccc4)cc3)c2C2CC2)c1 [Compound 14-77]
< 5.52 | CCn1cc(NC(=O)c2nnn(-c3ccc(-c4ccccc4)cc3)c2C2CC2)c(C#N)n1 [Compound 14-78]
< 5.52 | Cn1ncc2c(NC(=O)c3nnn(-c4ccc(-c5ccccc5)cc4)c3C3CC3)ncnc21 [Compound 14-79]
< 5.52 | O=C(Nc1cnn(C(F)(F)F)c1)c1nnn(-c2ccc(-c3ccccc3)cc2)c1C1CC1 [Compound 14-80]
< 5.52 | CC(C)C(NC(=O)c1nnn(-c2ccc(-c3ccccc3)cc2)c1C1CC1)c1cn[nH]c1 (stereo not shown) [Compound 14-81]
< 5.52 | O=C(N[C@H]1CCC[C@@H]1O)c1nnn(-c2ccc(-c3ccccc3)cc2)c1C1CC1 [Compound 14-82]
< 5.52 | COCC1(NC(=O)c2nnn(-c3ccc(-c4ccccc4)cc3)c2C2CC2)CCCC1 [Compound 14-83]

pIC50 | Structure (SMILES)
< 5.52 | COc1cc(NC(=O)c2nnn(-c3ccc(-c4ccccc4)cc3)c2C2CC2)c2cn[nH]c2c1 [Compound 14-84]
< 5.52 | Cn1cc(C(C)(C)NC(=O)c2nnn(-c3ccc(-c4ccccc4)cc3)c2C2CC2)cn1 [Compound 14-85]
< 5.52 | C[C@H](NC(=O)c1nnn(-c2ccc(-c3ccccc3)cc2)c1C1CC1)c1ccccc1 [Compound 14-86]
< 5.52 | O=C(Nc1cnn(C2CC2)c1)c1nnn(-c2ccc(-c3ccccc3)cc2)c1C1CC1 [Compound 14-87]
5.52 to 6.00 | CC(=O)c1cc(NC(=O)c2nnn(-c3ccc(-c4ccccc4)cc3)c2C2CC2)ccn1 [Compound 14-88]
> 7.00 | Cc1cc(NC(=O)c2nnn(-c3ccc(-c4ccc(CC#N)cc4)cc3)c2C2CC2)ccn1 [Compound 15-1]
6.30 to 7.00 | Cc1cc(NC(=O)c2nnn(-c3ccc(-c4ccc(C#N)c(F)c4)cc3)c2C2CC2)ccn1 [Compound 15-2]
6.00 to 6.30 | Cc1ccc(CNC(=O)c2nnn(-c3ccc(-c4ccc(C#N)cc4)cc3)c2C2CC2)cn1 [Compound 15-3]
6.00 to 6.30 | Cc1nn(C)c(C)c1-c1ccc(-n2nnc(C(=O)NC(C)c3cnn(C)c3)c2C2CC2)cc1 (stereo not shown) [Compound 15-4, 5-cyclopropyl-N-(1-(1-methyl-1H-pyrazol-4-yl)ethyl)-1-(4-(1,3,5-trimethyl-1H-pyrazol-4-yl)phenyl)-1H-1,2,3-triazole-4-carboxamide]
6.00 to 6.30 | Cn1c(CNC(=O)c2nnn(-c3ccc(-c4ccc(C#N)cc4)cc3)c2C2CC2)nc2ccccc21 [Compound 15-5]
5.52 to 6.00 | Cn1c(CNC(=O)c2nnn(-c3ccc(-c4ccc(CC#N)cc4)cc3)c2C2CC2)nc2ccccc21 [Compound 15-6]
5.52 to 6.00 | CC(NC(=O)c1nnn(-c2ccc(-c3ccc(C#N)c(F)c3)cc2)c1C1CC1)c1ccn(C)n1 (stereo not shown) [Compound 15-7]
5.52 to 6.00 | CC(NC(=O)c1nnn(-c2ccc(-c3ccc(C#N)cc3)cc2)c1C1CC1)c1cnn(C)c1 (stereo not shown) [Compound 15-8]
< 5.52 | CC(NC(=O)c1nnn(-c2ccc(-c3ccc(CC#N)cc3)cc2)c1C1CC1)c1cnn(C)c1 (stereo not shown) [Compound 15-9]
< 5.52 | CC(NC(=O)c1nnn(-c2ccc(-c3ccc(C#N)cc3)cc2)c1C1CC1)c1ccn(C)n1 (stereo not shown) [Compound 15-10]
6.30 to 7.00 | Cc1ncccc1CNC(=O)c1nnn(-c2ccc(-c3c(C)nn(C)c3C)cc2)c1C1CC1 [Compound 15-11]
6.30 to 7.00 | Cc1ccc(CNC(=O)c2nnn(-c3ccc(-c4c(C)nn(C)c4C)cc3)c2C2CC2)cn1 [Compound 15-12]
6.00 to 6.30 | Cc1nn(C)c(C)c1-c1ccc(-n2nnc(C(=O)NC(C)(C)c3cccnc3)c2C2CC2)cc1 [Compound 15-13]
6.30 to 7.00 | COc1ccc(-c2ccc(-n3nnc(C(=O)Nc4ccnc(C)c4)c3C3CC3)cc2)cn1 [Compound 15-14]
5.52 to 6.00 | CCn1cc(CNC(=O)c2nnn(-c3ccc(-c4cccc(C#N)c4)cc3)c2C2CC2)cn1 [Compound 15-15]
5.52 to 6.00 | Cc1ccc(C2(NC(=O)c3nnn(-c4ccc(-c5c(C)nn(C)c5C)cc4)c3C3CC3)CC2)cn1 [Compound 15-17]
5.52 to 6.00 | CCc1ncccc1C1(NC(=O)c2nnn(-c3ccc(-c4ccc(C#N)cc4)cc3)c2C2CC2)CC1 [Compound 15-18]
6.30 to 7.00 | CCn1cc(CNC(=O)c2nnn(-c3ccc(-c4c(C)nn(C)c4C)cc3)c2C2CC2)cn1 [Compound 15-19]
